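Protocol summary: plate cells (96-well), add compound at 5 concentrations, incubate 48 h, interpolate endpoints linearly. Here, GI50 denotes the concentration required for 50% inhibition of growth.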 Calls of active or inactive are those of the source. Rule as the data show it: active = GI50 up to about 1.1 µM and inactive = higher. Residues, ends and D or L forms follow the SMILES beside them. *: point of attachment. Boc = CC(C)(C)OC(=O)*; Bz = O=C(c1ccccc1)*
What was measured:
Experiment in all cases: DTP human tumour cell line panel, 48 h
[1] = test system: U-251
[2] = test system: T47D
[3] = test system: COLO 205
[4] = test system: SNB-19
[5] = test system: CCRF-CEM
[6] = test system: HOP-62
[7] = test system: MDA-MB-435
[8] = test system: PC-3
[9] = test system: HOP-92
[10] = test system: DU-145
[11] = test system: KM12
[12] = test system: MCF7
[13] = test system: SK-OV-3
[14] = test system: NCI-H460
[15] = test system: SF-295
[16] = test system: MDA-MB-231
[17] = test system: SK-MEL-2
[18] = test system: SF-268
[19] = test system: UO-31
[20] = test system: EKVX

Measured: GI50

NS(=O)(=O)c1cc(Br)c(/N=N\c2ccc(O)c3ncccc23)c(Br)c1
inactive: [1] 19.1 µM | [2] 39 µM | [3] > 100 µM | [4] 19.5 µM | [5] 3.78 µM | [6] 25.5 µM | [7] 29.2 µM | [8] 29.8 µM | [9] 41.8 µM | [10] 47 µM | [11] 37.8 µM | [12] 11.5 µM | [13] 47.8 µM | [14] 25.3 µM | [15] 42.6 µM | [16] 51.1 µM | [17] 28 µM | [18] 15.9 µM | [19] 21.3 µM | [20] 32.3 µM

O=C1OC[C@@H]2[C@@H](O)CCCCCN12
inactive: [1] > 100 µM | [2] > 100 µM | [3] > 100 µM | [4] > 100 µM | [5] > 100 µM | [6] > 100 µM | [7] > 100 µM | [8] > 100 µM | [9] > 100 µM | [10] > 100 µM | [11] > 100 µM | [12] > 100 µM | [13] > 100 µM | [14] > 100 µM | [15] > 100 µM | [16] > 100 µM | [17] > 100 µM | [19] > 100 µM | [20] > 100 µM

O=C(O)CNCP(=O)(O)O [GLYPHOSATE]
inactive: [1] > 100 µM | [2] > 100 µM | [3] > 100 µM | [4] > 100 µM | [5] > 100 µM | [6] > 100 µM | [7] > 100 µM | [8] > 100 µM | [9] > 100 µM | [10] > 100 µM | [11] > 100 µM | [12] > 100 µM | [13] > 100 µM | [14] > 100 µM | [15] > 100 µM | [16] > 100 µM | [17] > 100 µM | [18] > 100 µM | [20] > 100 µM

COC1/C=C/O[C@@]2(C)Oc3c(C)c(O)c4c(O)c(cc(O)c4c3C2=O)NC(=O)/C(C)=C\C=C\[C@H](C)C(O)[C@@H](C)[C@@H](O)[C@@H](C)[C@H](OC(C)=O)[C@@H]1C (stereo not given in full)
inactive: [1] 44.2 µM | [2] 17.7 µM | [3] 2.65 µM | [4] 82.2 µM | [5] 2.06 µM | [6] 117 µM | [7] 19.9 µM | [8] 16 µM | [9] 10.2 µM | [10] 24 µM | [11] 27.2 µM | [12] 10.2 µM | [13] 110 µM | [15] 94.8 µM | [16] 23.3 µM | [17] 13.8 µM | [18] 24.5 µM | [19] 51.3 µM

CCC[N+](C)(C)CCCNC(=O)c1c(O)c2ccccc2[nH]c1=O
inactive: [1] > 100 µM | [2] > 100 µM | [3] > 100 µM | [5] > 100 µM | [6] > 100 µM | [7] > 100 µM | [8] > 100 µM | [9] > 100 µM | [10] > 100 µM | [11] > 100 µM | [12] > 100 µM | [13] > 100 µM | [14] > 100 µM | [15] > 100 µM | [16] > 100 µM | [17] > 100 µM | [18] > 100 µM | [19] 53.1 µM | [20] > 100 µM

CC(NC(=O)C(Cc1ccc(OC(=O)c2ccccc2)cc1)NC(=O)OC(C)(C)C)C(=O)NC(Cc1ccccc1)C(=O)NCC(N)=O (stereo not given) (Boc-Y(Bz)AFG-NH2; configuration not given here)
inactive: [1] 17.8 µM | [2] 20.9 µM | [3] 29.1 µM | [4] 18.6 µM | [5] 77.8 µM | [6] 14.9 µM | [7] 21.7 µM | [8] 18 µM | [9] 23.6 µM | [10] 20.4 µM | [11] 35.8 µM | [12] 19.5 µM | [13] 19.2 µM | [14] 18.3 µM | [15] 18.7 µM | [16] 19.4 µM | [17] 17.9 µM | [18] 19.6 µM | [19] 18.8 µM

N#Cc1cnc(-n2[nH]c3c(c2=O)CCCC3)[nH]c1=O
inactive: [1] 58.6 µM | [2] > 100 µM | [3] 38.5 µM | [4] > 100 µM | [5] 31.9 µM | [7] 54.5 µM | [8] 59.4 µM | [9] 35.2 µM | [10] 64.1 µM | [11] 21.8 µM | [12] 39.8 µM | [13] 75.3 µM | [14] 36.5 µM | [15] 40.3 µM | [16] 39.9 µM | [17] 71.3 µM | [18] 46 µM | [19] 38.5 µM | [20] 37.6 µM

CSc1ccc(-c2cc(-c3nc4ccccc4[nH]3)no2)cc1
inactive: [2] 5.77 µM | [3] 23.9 µM | [4] 40.3 µM | [5] 18.4 µM | [6] 34.4 µM | [7] 18.5 µM | [8] 32.6 µM | [9] 50.6 µM | [10] 13.6 µM | [11] 9.91 µM | [12] 9.02 µM | [13] 70.5 µM | [14] 18.4 µM | [15] 28.7 µM | [16] 40.6 µM | [17] 20.4 µM | [18] 32 µM | [19] 13.1 µM | [20] 24.7 µM

Cc1ccc([N+](=O)[O-])cc1S(=O)(=O)Nc1ccc(C2=NOC(c3ccccc3)C2)cc1 (stereo not given)
inactive: [2] 5.77 µM | [3] 6.7 µM | [4] 10.1 µM | [5] 9.48 µM | [6] 5.3 µM | [7] 1.5 µM | [8] 7.19 µM | [9] 15.7 µM | [10] 12 µM | [11] 3.57 µM | [12] 3.25 µM | [13] 11.5 µM | [14] 5.52 µM | [15] 3.17 µM | [16] 8.99 µM | [17] 3.65 µM | [18] 12.4 µM | [19] 18.2 µM | [20] 17.7 µM

CC1(c2nc3cc(Cl)c(Cl)cc3[nH]2)CCC(CO)C(C)(C)O1 (stereo not given)
inactive: [1] 38.6 µM | [2] 32.3 µM | [3] 25.1 µM | [4] 54.1 µM | [5] 27.9 µM | [6] 33.3 µM | [7] 41.4 µM | [8] 29 µM | [9] 44 µM | [10] 38 µM | [11] 15.1 µM | [12] 35.9 µM | [13] 94.2 µM | [15] 31 µM | [16] 22.8 µM | [17] 30.3 µM | [18] 34.8 µM | [19] 15.1 µM | [20] 23 µM

From ChEMBL document CHEMBL1201862, “PubChem BioAssay data set” (2004)
